Data on four compounds can be found in US8895504B2, “Amylin derivatives” (priority 2008, dated 2014).

*1 amine or outer side, *2 acyl side, *3 side chain or, on linkers, in order; H or OH if unused. Where a SMILES comes first, the peptide text is derived from it. Bridges are numbered along the chain shown (N, C = ends). The star is where a group is joined. C20 diacid = O=C(O)CCCCCCCCCCCCCCCCCCC(=O)*; γGlu = O=C(O)[C@H](CCC(=O)[*:2])N[*:1]; AEEA = NCCOCCOCC(=O)O

The target of data set [1] is T1, Amylin 3(a) receptor (human calcitonin receptor (CTa) and RAMP-3) (Homo sapiens, UniProt O60896+P30988).
T1 construct: expressed in transfected cells; host or cells: BHK570 cells, stably transfected with a CRE-luciferase reporter
Briefly: Luciferase assay (III), BHK Amylin 3(a)//CRE-luc cells. In kind it is cell-based. The note with it: BHK cells with Amylin 3(a) receptor and CRE luciferase reporter, 4 hours incubation; read-out: Potency Luciferase. A digest of the protocol:
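BHK570 cells stably expressing CTa, RAMP-3 and a CRE-luciferase reporter, seeded at about 20,000 cells/well and grown overnight. Cells were exposed to standard or sample for 4 h at 37° C in phenol red-free DMEM with 10% FBS and 10 mM Hepes, pH 7,4. Luminescence was read after 30 min LucLite at room temperature.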
A general note: Reporter assays use an easily measured gene product as a stand-in for the process of interest.

Data set [2] can be described thus: Assay (V) PK - determination of T½ in mini-pig. The class given is in vivo. The note with it: minipig, sc; terminal plasma half-life, subcutaneous, approx 2 nmol/kg, male Göttingen mini-pigs. On the procedure: Assay (V) PK—Determination OF T½ in Mini-Pig
T½ is the terminal half-life=ln 2/λz of a compound in plasma. λz is the first order rate constant associated with the terminal (log-linear) portion of the plasma concentration-time curve and is estimated by linear regression of time vs. log concentration.
T½ values of the amylin analogues of the invention is determined by pharmacokinetic studies in male Göttingen mini-pigs from Ellegaard Göttingen Minipigs ApS and the principles of laboratory animal care are followed.
An acclimatization period of approximately 6-10 days was allowed before the animals entered the study. At start of the acclimatization period the mini-pigs were about 5 to 12 months old and in the weight range of 7-35 kg. The mini-pigs had two central venous catheters inserted which were used for blood sampling.
The studies were conducted in an animal room which was illuminated to give a cycle of approx 12 hours light and 12 hours darkness. The animals were housed individually.
The animals had free access to domestic quality drinking water during the study, but were typically fasted from overnight before dosing until approx 6-12 hours after dosing. The animals were weighed on arrival and on the days of dosing.
In the present studies the test substances were administered subcutaneously in approx 2 nmol/kg dose. The animals received a single subcutaneous injection. The subcutaneous injection was given on the right side of the neck, approximately 5-7 cm from the ear and 7-9 cm from the middle of the neck. The injections were given with a stopper on the needle, allowing approx 0.5 cm of the needle to be introduced. Each test substance was given to typically three but in some cases two or four animals.
A full plasma concentration-time profile, employing 12-16 sampling points, was obtained from each animal. In example blood samples were collected according to the following schedule:
After subcutaneous administration:
Predose (0), 0.5, 1, 2, 4, 6, 8, 12, 24, 48, 72, 96, 120, 168 and 240 hours after injection. In some cases also additional blood samples up to 288 hours post injection were taken.
At each sampling time, 0.5 to 2 ml of blood was drawn from each animal. The blood samples were taken via the central venous catheter.
The blood samples were collected into EDTA test tubes (i.e. Sarstedt Micro tube 1.3 mL K3E). Blood samples were kept on ice for max 20 min. before centrifugation. Plasma was separated using centrifugation (i.e. at 4° C., 10 min., 1500 G) and was immediately transferred to Micronic tubes. Approximately 200 μl plasma was transferred to each Micronic tube. The plasma was stored at −20° C. until assayed. The plasma samples were assayed for the content of amylin using an ELISA assay.
The plasma concentration-time profiles were analysed by a non-compartmental pharmacokinetic analysis (NCA) using WinNonlin Professional 5.0 (Pharsight Inc., Mountain View, Calif., USA). NCA was performed using the individual plasma concentration-time profiles from each animal. T½ is the terminal half-life=ln 2/λz and was determined from λz, the first order rate constant associated with the terminal (log-linear) portion of the curve, estimated by linear regression of time vs. log concentration.
ELISA Plasma Assay for Amylin Quantification
The human amylin ELISA is a monoclonal antibody-based sandwich immunoassay for determining amylin levels in human plasma. The capture antibody recognizes human amylin, amylin acid (deamidated amylin), a 1-20 fragment of amylin, but not reduced amylin.
The detection antibody binds to reduced or unreduced human amylin but not amylin acid and is complexed with streptavidin-alkaline phosphatase. The substrate, 4-methylumbelliferyl phosphate, is applied to the completed sandwich and the fluorescent signal, monitored at 355 nm/460 nm, is proportional to the amount of amylin present in the sample.

T1 sequence (O60896 24-148): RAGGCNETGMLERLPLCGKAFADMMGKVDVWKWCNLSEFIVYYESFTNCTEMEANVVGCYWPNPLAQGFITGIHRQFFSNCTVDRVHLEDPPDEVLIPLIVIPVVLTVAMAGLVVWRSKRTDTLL
T1 sequence (P30988 25-474): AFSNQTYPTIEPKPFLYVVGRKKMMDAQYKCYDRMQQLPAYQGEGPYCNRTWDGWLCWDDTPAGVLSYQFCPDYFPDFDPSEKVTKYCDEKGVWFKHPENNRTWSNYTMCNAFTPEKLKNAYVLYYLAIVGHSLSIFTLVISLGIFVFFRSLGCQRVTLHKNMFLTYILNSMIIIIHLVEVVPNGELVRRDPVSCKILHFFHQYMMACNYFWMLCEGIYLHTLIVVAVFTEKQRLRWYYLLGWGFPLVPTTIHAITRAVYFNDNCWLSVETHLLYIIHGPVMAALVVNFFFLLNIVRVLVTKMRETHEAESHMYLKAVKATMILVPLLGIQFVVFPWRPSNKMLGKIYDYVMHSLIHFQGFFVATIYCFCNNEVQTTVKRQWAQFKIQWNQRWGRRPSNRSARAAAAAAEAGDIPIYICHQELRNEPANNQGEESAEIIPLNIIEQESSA

As to `CC[C@H](C)[C@H](NC(=O)[C@@H]1CCCN1C(=O)CNC(=O)[C@H](Cc1ccccc1)NC(=O)[C@H](CC(N)=O)NC(=O)[C@H](CC(N)=O)NC(=O)[C@H](CO)NC(=O)[C@H](CO)NC(=O)[C@H](Cc1c[nH]cn1)NC(=O)[C@H](Cc1c[nH]cn1)NC(=O)[C@H](CC(C)C)NC(=O)[C@H](Cc1ccccc1)NC(=O)[C@H](CC(N)=O)NC(=O)[C@H](C)NC(=O)[C@H](CC(C)C)NC(=O)[C@H](CCCNC(=N)N)NC(=O)[C@H](CCC(N)=O)NC(=O)[C@@H](NC(=O)[C@H](C)NC(=O)[C@@H]1CSSC[C@H](NC(=O)[C@H](Cc2c[nH]cn2)NC(=O)COCCOCCNC(=O)CC[C@H](NC(=O)CCCCCCCCCCCCCCCCCCC(=O)O)C(=O)O)C(=O)N[C@@H](CC(N)=O)C(=O)N[C@@H]([C@@H](C)O)C(=O)N[C@@H](C)C(=O)N[C@@H]([C@@H](C)O)C(=O)N1)[C@@H](C)O)C(=O)N[C@@H](CC(C)C)C(=O)N1CCC[C@H]1C(=O)N1CCC[C@H]1C(=O)N[C@H](C(=O)N[C@@H](CC(N)=O)C(=O)N[C@H](C(=O)NCC(=O)N[C@@H](CO)C(=O)N[C@@H](CC(N)=O)C(=O)N[C@H](C(=O)N[C@@H](Cc1ccc(O)cc1)C(N)=O)[C@@H](C)O)C(C)C)[C@@H](C)O` [Example 37, N-alpha-[2-(2-{2-[4-(S)-Carboxy-4-(19-carboxynonadecanoylamino)butyrylamino]ethoxy}ethoxy)acetyl]-[His1,His17]-pramlintide] ({C20 diacid-γGlu-AEEA}-HCNTATCATQRLANFLHHSSNNFGPILPPTNVGSNTY-NH2; disulfide 2-7), the EC50 in data set [1] was determined as 0.09 nM. Further, the half-life – broadly, how long it takes for the measured level to halve – in data set [2] was 66 h.

`CC[C@H](C)[C@H](NC(=O)[C@@H]1CCCN1C(=O)CNC(=O)[C@H](Cc1ccccc1)NC(=O)[C@H](CC(N)=O)NC(=O)[C@H](CC(N)=O)NC(=O)[C@H](CO)NC(=O)[C@H](CO)NC(=O)[C@H](Cc1c[nH]cn1)NC(=O)[C@H](Cc1c[nH]cn1)NC(=O)[C@H](CC(C)C)NC(=O)[C@H](Cc1ccccc1)NC(=O)[C@H](CC(N)=O)NC(=O)[C@H](C)NC(=O)[C@H](CC(C)C)NC(=O)[C@H](CCCNC(=N)N)NC(=O)[C@H](CCC(N)=O)NC(=O)[C@@H](NC(=O)[C@H](C)NC(=O)[C@@H]1CSSC[C@H](NC(=O)[C@H](CCCNC(=N)N)NC(=O)[C@H](Cc2c[nH]cn2)NC(=O)[C@H](Cc2c[nH]cn2)NC(=O)COCCOCCNC(=O)CC[C@H](NC(=O)CCCCCCCCCCCCCCCCCCC(=O)O)C(=O)O)C(=O)N[C@@H](CC(N)=O)C(=O)N[C@@H]([C@@H](C)O)C(=O)N[C@@H](C)C(=O)N[C@@H]([C@@H](C)O)C(=O)N1)[C@@H](C)O)C(=O)N[C@@H](CC(C)C)C(=O)N1CCC[C@H]1C(=O)N1CCC[C@H]1C(=O)N[C@H](C(=O)N[C@@H](CC(N)=O)C(=O)N[C@H](C(=O)NCC(=O)N[C@@H](CO)C(=O)N[C@@H](CC(N)=O)C(=O)N[C@H](C(=O)N[C@@H](Cc1ccc(O)cc1)C(N)=O)[C@@H](C)O)C(C)C)[C@@H](C)O` [Example 56, N-alpha-[2-(2-{2-[4-(S)-Carboxy-4-(19-carboxynonadecanoylamino)butyrylamino]ethoxy}ethoxy)acetyl]-His-His-[Arg1,His17]-pramlintide] ({C20 diacid-γGlu-AEEA}-HHRCNTATCATQRLANFLHHSSNNFGPILPPTNVGSNTY-NH2; disulfide 4-9): the EC50 in data set [1] was 0.09 nM. The same compound gave a half-life in data set [2] of 31 h.

Consider `CC[C@H](C)[C@H](NC(=O)[C@@H]1CCCN1C(=O)CNC(=O)[C@H](Cc1ccccc1)NC(=O)[C@H](CC(N)=O)NC(=O)[C@H](CC(N)=O)NC(=O)[C@H](CO)NC(=O)[C@H](CO)NC(=O)[C@H](Cc1c[nH]cn1)NC(=O)[C@H](Cc1c[nH]cn1)NC(=O)[C@H](CC(C)C)NC(=O)[C@H](Cc1ccccc1)NC(=O)[C@H](CC(N)=O)NC(=O)[C@H](C)NC(=O)[C@H](CC(C)C)NC(=O)[C@H](CCCNC(=N)N)NC(=O)[C@H](CCC(N)=O)NC(=O)[C@@H](NC(=O)[C@H](C)NC(=O)[C@@H]1CSSC[C@H](NC(=O)[C@H](CCCCN)NC(=O)[C@H](CCCNC(=N)N)NC(=O)[C@H](Cc2c[nH]cn2)NC(=O)CC[C@H](NC(=O)CCCCCCCCCCCCCCCCCCC(=O)O)C(=O)O)C(=O)N[C@@H](CC(N)=O)C(=O)N[C@@H]([C@@H](C)O)C(=O)N[C@@H](C)C(=O)N[C@@H]([C@@H](C)O)C(=O)N1)[C@@H](C)O)C(=O)N[C@@H](CC(C)C)C(=O)N1CCC[C@H]1C(=O)N1CCC[C@H]1C(=O)N[C@H](C(=O)N[C@@H](CC(N)=O)C(=O)N[C@H](C(=O)NCC(=O)N[C@@H](CO)C(=O)N[C@@H](CC(N)=O)C(=O)N[C@H](C(=O)N[C@@H](Cc1ccc(O)cc1)C(N)=O)[C@@H](C)O)C(C)C)[C@@H](C)O` [Example 40, N-alpha-[(S)-4-Carboxy-4-(19-carboxynonadecanoylamino)butyryl]-His-Arg-[His17]-pramlintide] ({C20 diacid-γGlu}-HRKCNTATCATQRLANFLHHSSNNFGPILPPTNVGSNTY-NH2; disulfide 4-9), for which, in data set [1], the EC50 worked out at 0.1 nM. Further, the half-life in data set [2] was 31 h.

As for `CC[C@H](C)[C@H](NC(=O)[C@@H]1CCCN1C(=O)CNC(=O)[C@H](Cc1ccccc1)NC(=O)[C@H](CC(N)=O)NC(=O)[C@H](CC(N)=O)NC(=O)[C@H](CO)NC(=O)[C@H](CO)NC(=O)[C@H](Cc1c[nH]cn1)NC(=O)[C@H](Cc1c[nH]cn1)NC(=O)[C@H](CC(C)C)NC(=O)[C@H](Cc1ccccc1)NC(=O)[C@H](CC(N)=O)NC(=O)[C@H](C)NC(=O)[C@H](CC(C)C)NC(=O)[C@H](CCCNC(=N)N)NC(=O)[C@H](CCC(N)=O)NC(=O)[C@@H](NC(=O)[C@H](C)NC(=O)[C@@H]1CSSC[C@H](NC(=O)[C@H](CCCNC(=N)N)NC(=O)[C@H](CCCNC(=N)N)NC(=O)[C@H](Cc2c[nH]cn2)NC(=O)[C@H](CCC(=O)O)NC(=O)CC[C@H](NC(=O)CCCCCCCCCCCCCCCCCCC(=O)O)C(=O)O)C(=O)N[C@@H](CC(N)=O)C(=O)N[C@@H]([C@@H](C)O)C(=O)N[C@@H](C)C(=O)N[C@@H]([C@@H](C)O)C(=O)N1)[C@@H](C)O)C(=O)N[C@@H](CC(C)C)C(=O)N1CCC[C@H]1C(=O)N1CCC[C@H]1C(=O)N[C@H](C(=O)N[C@@H](CC(N)=O)C(=O)N[C@H](C(=O)NCC(=O)N[C@@H](CO)C(=O)N[C@@H](CC(N)=O)C(=O)N[C@H](C(=O)N[C@@H](Cc1ccc(O)cc1)C(N)=O)[C@@H](C)O)C(C)C)[C@@H](C)O` [Example 55, N-alpha-[(S)-4-Carboxy-4-(19-carboxynonadecanoylamino)butyryl]-Glu-His-Arg-[Arg1,His17]-pramlintide] ({C20 diacid-γGlu}-EHRRCNTATCATQRLANFLHHSSNNFGPILPPTNVGSNTY-NH2; disulfide 5-10), the EC50 in data set [1] is 0.2 nM. The compound further gave a half-life in data set [2] of 38 h.
